From patent US8093251B2, “Nitrogen-containing heterocyclic compounds and thrombopoietin receptor activators” (Nissan Chemical Industries, Ltd., priority 2006, dated 2012) come the findings set out here.

For the test, the target named is T1, human thrombopoietin receptor (c-mpl) (Homo sapiens, UniProt P40238).
T1 construct: expressed in transfected cells
T1 sequence (P40238 26-635): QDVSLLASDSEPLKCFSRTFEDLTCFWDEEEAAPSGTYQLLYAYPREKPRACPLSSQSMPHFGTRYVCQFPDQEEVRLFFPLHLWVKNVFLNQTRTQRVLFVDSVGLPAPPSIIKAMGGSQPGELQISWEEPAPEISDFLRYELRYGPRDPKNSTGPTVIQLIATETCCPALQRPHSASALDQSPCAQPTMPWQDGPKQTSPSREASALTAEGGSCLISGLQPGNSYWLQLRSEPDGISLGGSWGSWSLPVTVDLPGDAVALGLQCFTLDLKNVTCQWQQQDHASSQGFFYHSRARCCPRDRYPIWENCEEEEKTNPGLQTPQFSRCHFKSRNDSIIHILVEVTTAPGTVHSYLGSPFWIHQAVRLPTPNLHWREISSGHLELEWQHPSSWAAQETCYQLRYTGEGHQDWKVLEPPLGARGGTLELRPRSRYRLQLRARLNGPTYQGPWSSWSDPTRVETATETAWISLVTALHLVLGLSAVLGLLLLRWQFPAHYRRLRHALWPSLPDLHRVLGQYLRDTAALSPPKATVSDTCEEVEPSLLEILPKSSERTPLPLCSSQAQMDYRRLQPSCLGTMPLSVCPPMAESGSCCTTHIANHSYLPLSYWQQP
Briefly: Stimulation of proliferation of thrombopoietin-dependent cell line UT7/EPO-mpl (WST-8). The following applies: human leukemic cell line UT-7/EPO-mpl, 4 days incubation, WST-8, absorbance at 450 nm; read-out: EC50 (concentration that yields a growth rate corresponding to 50% of the growth observed in the presence of 10 ng/mL TPO) (converted). Type of test: cell-based. How it is done: The responses of thrombopoietin receptor to the compounds of the present invention prepared in the Synthetic Examples were assayed using a human leukemic cell line, UT7/EPO-mpl.
UT7/EPO-mpl is a stable transformed cell line obtained by introducing into human leukemic cell line UT7/EPO a vector that induces expression of human thrombopoietin receptor (c-mpl) under control of cytomegalovirus immediate-early promoter by the method of Takatoku et al. (J. Biol. Chem., 272:7259-7263 (1997)). […] These two cell lines were subcultured in IMDM (GIBCO) containing 10% fetal bovine serum (Thermo Electron or BioWest) using a CO2 incubator (5% CO2, 37° C.).
The subcultured cells described above were washed twice with PBS and suspended in IMDM containing 10% fetal bovine serum at a cell density of 6×10^4 cells/ml. The cell suspension was transferred to a 96-well tissue culture plate (CORNING) in 100-μl aliquots. Then either thrombopoietin (Pepro Tech EC) or the compounds of the Synthetic Examples dissolved in dimethyl sulfoxide were diluted 83-fold with IMDM containing 10% fetal bovine serum and added to the aforementioned cell suspension in 20-μl aliquots. The cell suspension was incubated in a CO2 incubator (5% CO2, 37° C.) for 4 days. […] The formazan pigment generated was detected by measuring the absorbance at 450 nm with a 96-well microplate reader (Nihon Molecular Devices, Spectramax 190). […]

Structures are written as SMILES.

Take `CCOC(=O)CN1CCN(C(=S)NNC(C)=C2C(=O)N(c3ccc(C(C)(C)C)cc3)N=C2C)CC1` [Example 7]: the EC50 is 71.9 nM.
